Molecular target: T1, Bbreβgal-III (Bifidobacterium breve, UniProt D4BMY8)
T1 construct: gene BIFBRE_03435; pET21a(+) NdeI/NotI, His-tagged, E. coli BL21 Star (DE3), IMAC purified
Assay: o-nitrophenol release at […] nm, nonlinear fit with substrate inhibition model
Assay type: biochemical
Settings: substrate inhibition constant; 50 mM sodium phosphate pH 6.5, 30 °C

T1 sequence (D4BMY8 1-691): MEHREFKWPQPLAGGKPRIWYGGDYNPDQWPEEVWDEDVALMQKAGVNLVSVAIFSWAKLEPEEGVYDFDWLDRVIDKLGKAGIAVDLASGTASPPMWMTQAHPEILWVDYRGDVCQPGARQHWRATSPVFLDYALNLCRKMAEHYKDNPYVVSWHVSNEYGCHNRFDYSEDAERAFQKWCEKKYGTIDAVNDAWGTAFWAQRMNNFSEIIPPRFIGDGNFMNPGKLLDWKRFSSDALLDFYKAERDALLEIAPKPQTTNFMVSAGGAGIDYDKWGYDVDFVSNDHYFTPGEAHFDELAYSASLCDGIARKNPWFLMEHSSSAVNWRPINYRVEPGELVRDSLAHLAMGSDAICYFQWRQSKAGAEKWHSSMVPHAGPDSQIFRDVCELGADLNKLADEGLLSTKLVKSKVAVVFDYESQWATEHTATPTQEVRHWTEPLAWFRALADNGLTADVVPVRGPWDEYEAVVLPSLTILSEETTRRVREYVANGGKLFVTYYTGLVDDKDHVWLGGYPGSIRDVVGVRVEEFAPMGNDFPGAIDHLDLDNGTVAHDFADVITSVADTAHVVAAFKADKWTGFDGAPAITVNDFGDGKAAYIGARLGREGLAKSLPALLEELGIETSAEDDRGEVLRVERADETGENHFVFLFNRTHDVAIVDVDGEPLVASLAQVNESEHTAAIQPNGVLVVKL

k i,S: 13.84 ± 1.57 mM
Structure (SMILES): O=[N+]([O-])c1ccccc1O[C@@H]1O[C@H](CO)[C@H](O)[C@H](O)[C@H]1O [o-nitrophenyl-β-D-galactopyranoside]
